The values that follow come from US20220347085A1, “REPELLENT COMPOSITION AND USES” (Université Bourgogne, priority 2019, published 2022).

Type in all cases: in vivo
In assay [1] the test system is Drosophila melanogaster. Briefly: Courtship of male Drosophila melanogaster towards females, olfactory exposure. As for the experimental part:
1.1. Drosophila melanogaster
Drosophilae (Drosophila melanogaster) aged from 3 to 9 days are used for the courtship tests as described Grosjean et al. Nat. Neurosci. 2008 [1] and Grosjean et al. Nature 2011 [2].
Naive males were isolated in tubes, individually, upon emerging from their puparium. The females were selected to be virgin and were stored in tubes of 10 individuals. These tubes were placed in incubators, for which a temperature of 25° C. was kept constant. A 12 hour/12 hour day/night cycle was applied. The courtship tests were carried out in the morning, between 1 and 3 hours after the start of the day cycle.
These tests were conducted in devices made up of 6 cylindrical, transparent, and closed alveolae (see FIG. 15) of a volume of […]. A disk of filter paper (Whatman, filter paper 42) of 6 mm in diameter is deposited on the base thereof. Said paper is soaked in 10 μl of a composition comprising propionic acid and/or butyric acid diluted in paraffin oil (solvent). The different compositions used comprised, respectively, 0.5% or 1% propionic acid, 0.5% or 1% butyric acid. For each concentration, the number of pairs of flies tested was, respectively, 23, 23, 19 and 19. At the time of the test, 1 pair per alveolus was introduced into the behavior device (i.e. 6 pairs). Said pair was made up of one male and one female, each originating from the tubes mentioned above. The drosophilae were physically isolated from the odor source (said paper) by a netting which prevents any direct contact, the female had been decapitated but remained alive. In addition, the device was illuminated by red light (red far from the wavelength of between 625 and 630 nm) so as to eliminate any behavior associated with the visual perception which, in D. melanogaster, is between 300 and 550 nm)). Thus, the behavior observed depends only on the olfactory perception by the male of the compound introduced into the device at the time of the assembly thereof.
The behavior was filmed for 10 minutes, using a Sony HDR-XR550 camera. Each film was recorded and kept for subsequent analysis.
A proportion of courtship, expressed as a percentage, was then calculated, and represents the time during which the male courts the female during the 10 minutes of recording the test. The courtship of the Drosophila melanogaster is decomposed into recognizable stereotypical events, and described precisely in scientific literature (Greenspan & Ferveur, Annu. Rev. Genet, 2000 [3]). A statistical test (Mann-Whitney test (nonparametric test, GraphPad, Prism8)) was carried out in order to evaluate the influence, on the behavior, of the composition in which the paper is soaked; this involving a release of volatile compounds and an odor perceived by the drosophilae. […]

In assay [2] the test system is Drosophila suzukii. Briefly: Evaluation of the copulation of Drosophila suzukii. The note with it: 10 min observation. As for the experimental part: 2. Evaluation of the Copulation From the films recorded for studying the courtship behavior of Drosophila suzukii, a percentage of the number of pairs copulating during the 10 minutes of observation was calculated on the basis of the composition in which the filter paper was soaked. A statistical evaluation was carried out, and different tests were performed. In particular, a Kruskal-Wallis test followed by a post-hoc Dunn's Multiple Comparison Test were carried out (GraphPad, Prism6) in order to quantify the influence, on the number of copulating individuals, of the composition in which the paper is soaked and which involves a release of volatile compounds and an odor perceived.

Assay [3] deals with Drosophila suzukii. Briefly: Anesthesia test, Drosophila suzukii. Conditions: 2% in paraffin oil. Here is the method:
(§1) The devices used were similar to the devices for studying the courtship (example 1 above), except for the volume of the space into which the files were introduced, which was 45.24 or 22.62 cm^3. 9 discs of filter paper (Whatman, filter paper 42), each soaked in 10 μl of a composition comprising butyric acid and/or propionic acid and/or a derivative of propionic acid diluted in paraffin oil were deposited in the device. The different compositions used comprised, respectively, 2% propionic acid or 2% butyric acid or 5% ethyl propanoate or 10% ethyl propanoate or 30% ethyl propanoate. For each composition, the number of flies was, respectively, 30 and 24 males, 30 and 11 females for Drosophila melanogaster, and 24, 16 and 4 males, 28, 26, 6, 5 and 4 females for Drosophila suzukii. In order to avoid any contact of the flies with the soaked disks of paper, a gauze (netting) was arranged above said papers. The drosophilae could move freely on said gauze. The quantity of compound, butyric acid or propionic acid, or of ethyl propanoate (odor) volatilized in the behavior chamber was equivalent to that of the device used for the courtship. Likewise, the flies were never in direct contact with the composition (no taste perception), only with the volatile particles (olfactory perception). The flies tested were introduced simultaneously, by group, into the enclosure. Their behavior was filed for 10 minutes, and a time required for leading to anesthesia was calculated over this period, depending on the concentration of butyric acid or propionic acid or ethyl propanoate used. The flies were considered anesthetized when they stopped moving and fell on their side.

Assay [4] deals with Drosophila melanogaster. Briefly: Anesthesia test, Drosophila melanogaster. The note with it: 2% in paraffin oil. Here is the method: as §1
For assay [5], the system named is Drosophila melanogaster. Kind of assay: Test of the reversible effect (waking from anesthesia), Drosophila melanogaster. Conditions: after 10 minutes at 2%, then placed in empty device. As for the experimental part:
Test of the Reversible Effect.
The devices used were those described for the study of the anesthesia such as described in example 2 above. The application conditions for the propanoic acid or the butyric acid were similar to those of the anesthesia test described in example 2 above. The flies were brought into the presence of 2% propanoic acid or 2% butyric acid for 10 minutes. At the end of 10 minutes of observation of the anesthesia (example 2 above), the flies were removed from the device and placed into another device which was identical but “empty”, i.e. without solvent or odor (odor=2% propanoic acid in the solvent or 2% butyric acid in the solvent, respectively). For each empty device, the total number of flies introduced and observed were 20 males and 30 females previously exposed to 2% propanoic acid and removed from this anesthetizing environment, and 6 males and 7 females previously exposed to 2% butyric acid and removed from this anesthetizing environment.
The flies were considered as woken from the anesthesia when they got back up on their legs and moved in the device.
The time required for waking the flies following their anesthesia was then measured.

[6] abbreviates: 1% in paraffin oil, compared with solvent alone, red light, decapitated female.

As to `CCCC(=O)O` [butyric acid], the “proportion of courtship of males towards females” value in the assay with Drosophila melanogaster [1] (0.5% in paraffin oil, compared with solvent alone) is reported as “significantly reduced”; in the assay on Drosophila melanogaster [1] (setting [6]), “significantly reduced”. Also, the “reduction of the proportion of copulation” value with Drosophila suzukii [2] (0.1% in solvent) is recorded as 70.55%; in the assay on Drosophila suzukii [2] (0.5% in solvent), 83.03%. The results for the proportion of copulation in the assay with Drosophila suzukii [2] (0.5% in solvent) and in the assay with Drosophila suzukii [2] (1% in solvent) were 3.03% and “zero”, respectively. In addition, the “time elapsed leading to anesthesia” value in the assay on Drosophila suzukii [3] (female flies (FIG. 17)) is reported as “approximately 5 minutes”; in the assay on Drosophila suzukii [3] (male flies and female flies), “approximately 5 minutes”; in the assay with Drosophila melanogaster [4] (female flies), “approximately 17 minutes”; with Drosophila melanogaster [4] (male flies), “approximately 5 minutes”. Also, the “time required to wake up fully from the anesthesia” value in the assay on Drosophila melanogaster [5] (females) stood at 4.5 min; in the assay on Drosophila melanogaster [5] (males) it was 6 min.

For `CCC(=O)O` [propionic acid], the “proportion of courtship of males towards females” value in the assay with Drosophila melanogaster [1] (setting [6]) is on record as “significantly changed”; in the assay on Drosophila melanogaster [1] (1% in solvent, compared with 0.5% in solvent), “significantly reduced”. Moreover, the “reduction of the proportion of copulation” value in the assay with Drosophila suzukii [2] (0.1% in solvent) is 58%. In addition, the proportion of copulation result in the assay on Drosophila suzukii [2] (0.5% in solvent) and in the assay with Drosophila suzukii [2] (1% in solvent) was “zero” in each case. Further, the “time elapsed leading to anesthesia” value with Drosophila suzukii [3] (female flies (FIG. 17)) was “approximately 4 minutes”; in the assay with Drosophila suzukii [3] (male flies and female flies) it was “approximately 4 minutes”; in the assay on Drosophila melanogaster [4] (female flies) it was “approximately 5 minutes”; with Drosophila melanogaster [4] (male flies), “approximately 3 minutes”. For the same compound, the “time required to wake up fully from the anesthesia” value with Drosophila melanogaster [5] (females) is 9 min; in the assay on Drosophila melanogaster [5] (males), 23 min.
